This is an account of results in US6013648A, “CB2 Receptor agonist compounds” (Sanofi, priority 1995, dated 2000).

For assay [1], the system named is human B cells. In words: DNA synthesis rate (thymidine absorption) of human B cells co-stimulated with anti-Ig antibodies. The class given is cell-based. The following applies: for increase in the thymidine absorption (DNA synthesis rate): nanomolar concentrations, human B cells co-stimulated with anti-Ig antibodies. From the text: It has been shown that, at nanomolar concentrations, compounds according to the invention, such as 3-(morpholin-4-ylmethyl)-5-methyl-6-(naphth-1-ylcarbonyl)-2,3-dihydropyrrolo[1,2,3-de]-1,4-benzoxazine methanesulfonate and 1-(2-(morpholin-4-yl)ethyl)-2-methyl-3-(naphth-1-ylcarbonyl)-7-methoxyindole, are capable of substantially increasing the DNA synthesis rate of human B cells co-stimulated with anti-Ig antibodies (increase of about 40% in the thymidine absorption).

Assay [2] has as its target T1, peripheral human cannabinoid receptors (CB2) (Homo sapiens, UniProt P34972).
T1 construct: expressed in transfected cells; host or cells: cell line expressing CB2 (probably CHO; the print may tie CHO to CB1 only)
In words: affinity binding test, membranes from cell lines expressing CB2. To be noted: in vitro binding; read-out: affinity for the CB2 receptor. As for the experimental part: (§1) Affinity binding tests were carried out under the experimental conditions described by Devane et al. (Molecular Pharmacology (1988) 34, 605-613) with membranes derived from cell lines in which the CB1 and CB2 receptors were expressed (Munro et al., Nature (1993) 365, 561-565).

Assay [3] has as its target T2, central human receptors (CB1) (Homo sapiens, UniProt P21554).
T2 construct: expressed in transfected cells; host or cells: Chinese hamster ovary (CHO) cells
In words: affinity binding test, membranes from cell lines expressing CB1. As for the experimental part: as §1

Assay [4] deals with T3, CB1 receptors expressed in CHO cells (Homo sapiens, UniProt P21554).
T3 construct: expressed in transfected cells; host or cells: CHO cells
T3 sequence (P21554 whole entry): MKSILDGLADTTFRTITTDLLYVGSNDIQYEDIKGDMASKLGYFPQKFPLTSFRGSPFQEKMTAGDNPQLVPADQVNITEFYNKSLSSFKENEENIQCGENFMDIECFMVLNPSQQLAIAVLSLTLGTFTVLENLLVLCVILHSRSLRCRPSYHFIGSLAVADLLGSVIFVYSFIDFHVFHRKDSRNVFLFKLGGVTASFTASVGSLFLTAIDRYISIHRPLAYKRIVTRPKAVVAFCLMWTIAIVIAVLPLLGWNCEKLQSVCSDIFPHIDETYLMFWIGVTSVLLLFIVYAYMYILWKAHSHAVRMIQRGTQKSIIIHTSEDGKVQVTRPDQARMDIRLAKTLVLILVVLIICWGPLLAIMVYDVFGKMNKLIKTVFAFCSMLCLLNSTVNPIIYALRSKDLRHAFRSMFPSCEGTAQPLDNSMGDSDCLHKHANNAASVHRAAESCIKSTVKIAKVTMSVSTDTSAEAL
In words: forskolin-stimulated cAMP production / adenylate cyclase inhibition, CB1. In kind it is cell-based. As for the experimental part:
The tests were carried out under the experimental conditions described by Matsuda et al. (Nature, 1990, 346, 561-564).

Assay [5] concerns the target T4, human CB2 cannabinoid receptors (Homo sapiens, UniProt P34972).
T4 construct: expressed in transfected cells; host or cells: probably CHO cells (the print may tie CHO to CB1 only)
In words: forskolin-stimulated cAMP production / adenylate cyclase inhibition, CB2. In kind it is cell-based. On the procedure: Furthermore, the compounds according to the invention behave in vitro as specific agonists for the human CB2 cannabinoid receptors relative to the CB1 receptors expressed in CHO cells. In fact, by binding specifically to the CB2 receptors, they reduce forskolin-stimulated cAMP production by inhibiting the adenylate cyclase. The tests were carried out under the experimental conditions described by Matsuda et al. (Nature, 1990, 346, 561-564).
By way of example, the following adenylate cyclase 50% inhibitory concentrations, IC50, were calculated for 1-(2-(morpholin-4-yl)ethyl)-2-methyl-3-(4-bromonaphth-1-ylcarbonyl)-7-methoxyindole: […]

SMILES strings stand for the structures.

T1 sequence (P34972 whole entry): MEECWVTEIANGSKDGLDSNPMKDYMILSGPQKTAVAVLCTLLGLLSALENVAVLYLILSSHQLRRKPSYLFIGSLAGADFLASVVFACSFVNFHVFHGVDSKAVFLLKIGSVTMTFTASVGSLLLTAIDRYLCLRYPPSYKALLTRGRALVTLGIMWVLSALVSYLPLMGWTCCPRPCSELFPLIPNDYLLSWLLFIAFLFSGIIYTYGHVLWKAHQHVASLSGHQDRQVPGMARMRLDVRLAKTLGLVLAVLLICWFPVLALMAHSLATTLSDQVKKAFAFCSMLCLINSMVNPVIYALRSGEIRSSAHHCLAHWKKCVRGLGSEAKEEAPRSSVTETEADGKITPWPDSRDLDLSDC
T4 sequence (P34972 whole entry): as above
T2 sequence (P21554 whole entry): as the sequence (P21554 whole entry) above

In the case of `COc1cccc2c(C(=O)c3cccc4ccccc34)c(C)n(CCN3CCOCC3)c12` [Compound 6, 1-(2-(morpholin-4-yl)ethyl)-2-methyl-3-(naphth-1-ylcarbonyl)-7-methoxyindole], the “increase in the thymidine absorption (DNA synthesis rate)” value in assay [1] was “about 40%”. As for `CS(=O)(=O)O.Cc1c(C(=O)c2cccc3ccccc23)c2cccc3c2n1C(CN1CCOCC1)CO3` (single isomer, unassigned) [3-(morpholin-4-ylmethyl)-5-methyl-6-(naphth-1-ylcarbonyl)-2,3-dihydropyrrolo[1,2,3-de]-1,4-benzoxazine methanesulfonate], the “increase in the thymidine absorption (DNA synthesis rate)” value in assay [1] is reported as “about 40%”. For `COc1cccc2c(C(=O)c3ccc(Br)c4ccccc34)c(C)n(CCN3CCOCC3)c12` [Compound 22, 1-(2-(Morpholin-4-yl)ethyl)-2-methyl-3-(4-bromonaphth-1-ylcarbonyl)-7-methoxyindole], the figures for the Ki in assay [2] and in assay [3] were 1.8 nM and greater than 1000 nM, respectively. Besides, the IC50 came to 1000 nM in assay [4] and 1 nM in assay [5].

As for `Cc1c(C(=O)NN2CCCCC2)nn(-c2ccc(Cl)cc2Cl)c1-c1ccc(Cl)cc1` [SR 141716A, reference compound], the blocking effect result in assay [1] (wide concentration range, with CP 55940 (or Δ^9 -THC or WIN 55212-2) at 10^-9 M) is recorded as “no blocking effect was observed”.
